According to publication PMC12571071, “Preventing neuropathy and improving anticancer chemotherapy with a carbazole-based compound” (Science Advances, 2025):
Read-outs that look alike come from different tables or passages of the source.

Legend:
HeLa cells [1] = assay: HeLa cell viability (PrestoBlue) assay, 72 h; type: cell-based, human
Experimental: The human HeLa cell line was tested negative for mycoplasma contamination. HeLa cells were grown in RPMI 1640 medium supplemented with penicillin/streptomycin (100 μg/ml) and 10% FBS and maintained in a humidified incubator at 37°C and 5% CO2.
Cell viability was analyzed using the colorimetric PrestoBlue assay. Cells were seeded in 96-well microplates at a density of 7500 cells per well, allowed to adhere for 24 hours, and treated for 72 hours with either DMSO or drugs at indicated concentrations. PrestoBlue (10 μl) was then added to each well, followed by a 30-min incubation. Fluorescence was measured using a FLUOstar Optima microplate reader (excitation, 544 nm; emission, 580 nm; BMG Labtech).

NAMPT = NAMPT (Homo sapiens, UniProt P43490); assay: AS-MS binding assay, NAMPT; conditions: 10 μM compound, 3 μM NAMPT
Sequence of NAMPT (P43490 whole entry, species assumed): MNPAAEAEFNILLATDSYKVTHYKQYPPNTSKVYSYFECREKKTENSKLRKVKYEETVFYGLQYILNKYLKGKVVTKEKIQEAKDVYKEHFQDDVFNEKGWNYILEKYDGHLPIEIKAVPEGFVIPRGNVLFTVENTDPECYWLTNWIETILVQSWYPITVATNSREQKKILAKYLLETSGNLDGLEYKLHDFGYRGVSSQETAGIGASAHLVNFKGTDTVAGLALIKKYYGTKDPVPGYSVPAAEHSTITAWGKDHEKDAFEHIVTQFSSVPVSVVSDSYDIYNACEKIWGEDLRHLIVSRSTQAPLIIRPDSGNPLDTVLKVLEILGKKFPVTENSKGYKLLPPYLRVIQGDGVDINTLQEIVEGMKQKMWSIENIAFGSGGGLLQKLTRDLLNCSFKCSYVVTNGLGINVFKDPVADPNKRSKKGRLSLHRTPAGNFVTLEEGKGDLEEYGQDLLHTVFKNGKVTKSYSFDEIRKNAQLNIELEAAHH
Experimental: To this end, Carba1 or FK866 (positive control of NAMPT binding) was first incubated with NAMPT or carbonic anhydrase (CA; negative control). Protein-ligand complexes were separated from the unbound compounds by size exclusion chromatography (SEC). To quantify the protein-bound fraction, the complexes were then dissociated using reverse-phase chromatography, and the compounds were analyzed and quantified by mass spectrometry.
(§1) AS-MS was used to assess compound binding to NAMPT. AS-MS was performed by Edelris SAS (www.edelris.com/), which has developed the commercial AS-MS service “EDEN platform,” based on ([71]). Conditions consisted of protein (NAMPT and CA) at 3 μM and compounds (Carba1 and FK866) at 10 μM dissolved in corporate buffer.

[2] = test system: HeLa cells xenografted in mice; assay: HeLa tumor xenograft in nude mice; type: in vivo; conditions: PTX 8 mg/kg
Experimental: Five-week-old NMRI nude mice (Janvier Labs) were implanted with 10 × 10^6 HeLa cells (200 μl in PBS) on the right flank. On day 6, the mean tumor volume was 120 ± 4 mm^3. […] Behavior and signs of pain were monitored daily. Body weight and tumor volume were measured two to three times per week using electronic calipers, with tumor volume (in cubic millimeters) calculated as length (millimeters)/2 × width^2 (square millimeters). Tumor growth inhibition was analyzed using GraphPad Prism with one-way analysis of variance (ANOVA) and Dunn’s multiple comparisons test for treatment versus vehicle. Mice were euthanized on day 20, when the vehicle group reached ethical limits. Blood samples were collected by intracardiac puncture in EDTA-coated tubes for differential blood counts and hemograms, outsourced to IDEXX BioAnalytics. For biochemical analysis, blood was collected in heparin-lithium tubes, and plasma was isolated by centrifugation and frozen at −80°C. Plasma was analyzed using MS Scan II (Melet Schloesing) and VET16 reagent rotors to measure markers of renal and hepatic function, metabolism, and nutritional and muscular status. Differential counts, hemograms, and biochemical data were analyzed with GraphPad Prism using Kruskal-Wallis test and Dunn’s multiple comparisons test.

HeLa cells [3] = test system: HeLa cells; parameters: method as in PMID 32781579; conditions: dividing cells, 72-hour treatment; read-out: GI50 (50% of growth inhibition); cited from earlier work
DRG explants = assay: Mouse embryonic 3D DRG explants: axonal degeneration and myelination (MBP/TUBB3); type: cell-based; conditions: 72 h
Experimental: Embryonic DRG 3D explants were prepared from E13.5 mouse embryos and seeded at one explant/1.9 cm^2 on acid-treated, Matrigel-coated glass coverslips ([64], [65]). Explants were cultured at 37°C under 5% CO2 and high saturated in humidity. From DIV 0 to DIV 3, cultures were maintained in C-medium supplemented with 10% FBS, 1× GlutaMAX, D-glucose (4 g/liter), 2.5S nerve growth factor (NGF; 50 ng/ml), and 1% penicillin/streptomycin. From DIV 3 to DIV 7, neurobasal medium supplemented with 1× B27, 1× GlutaMAX, D-glucose (4 g/liter), 2.5S NGF (50 ng/ml), and 1% penicillin/streptomycin was used to promote axon development. From DIV 7 onward, differentiation medium [C-medium supplemented with 5 μM forskolin, ascorbic acid (50 μg/ml), and heparin (25 μg/ml)] was used to support glial cell maturation and myelination, with medium changes occurring every 2 days.
DRGs were fixed with 10% formalin for 20 min at R.T., washed with PBS, and permeabilized for 10 min with PBS–0.1% Triton X-100. Blocking was performed using a solution of 3% bovine serum albumin (BSA), 0.1% glycine, and 5% goat preimmune serum in PBS for 2 hours at R.T. DRGs were then washed in PBS and incubated overnight at 4°C with of anti-TUBB3 (1 μg/ml) and anti-MBP (1 μg/ml). After PBS washes, secondary antibodies (goat anti-mouse Alexa Fluor 488, 1:1000, and goat anti-rabbit Alexa Fluor 647, 1:1000) were applied for 1 hour at R.T. Explants were mounted with ProLong Gold antifade reagent with 4′,6-diamidino-2-phenylindole (DAPI).
Images of random fields of DRG explants, fixed in 4% formaldehyde and immunostained for TUBB3 and MBP, were captured with consistent acquisition times across samples, using a Zeiss AxioImager M2 microscope, equipped with a Hamamatsu Orca R2 camera. Image analysis was performed using Fiji software. The images were thresholded using the default global autothreshold method. For each field, MBP^+ segments were counted and normalized to the TUBB3^+ area.

carbonic anhydrase (CA) = assay: AS-MS binding assay, carbonic anhydrase (negative control); conditions: 10 μM compound, 3 μM carbonic anhydrase
Experimental: To this end, Carba1 or FK866 (positive control of NAMPT binding) was first incubated with NAMPT or carbonic anhydrase (CA; negative control). Protein-ligand complexes were separated from the unbound compounds by size exclusion chromatography (SEC). To quantify the protein-bound fraction, the complexes were then dissociated using reverse-phase chromatography, and the compounds were analyzed and quantified by mass spectrometry. By comparing the amounts of compound before (preSEC) and after (postSEC) SEC in the presence of CA or NAMPT, we assessed their ability to selectively bind to NAMPT.
as §1

HeLa cells [4] = assay: NAD(P)H autofluorescence imaging in live HeLa cells; type: cell-based, human; conditions: 12 μM, 24 hours
Experimental: HeLa cells were seeded in four-chamber Labtek plates at 10,000 cells per well. After 48 hours, cells were preincubated with or without 12 μM Carba1 for 2 hours before addition of FK866 (5 and 10 nM). Drugs were added to phenol red–free DMEM medium, supplemented with 10% FBS 1% penicillin/streptomycin. After 24 hours of drug incubation, cells were imaged using a confocal microscope (LSM 710, Zeiss) with a two-photon excitation at 700 nm (Chameleon Vision Laser, Coherent) and a 40×/1.2 water-immersion objective. Detection was performed in single-photon mode using an avalanche photodiode detector (ConfoCor 3). NAD(P)H signal intensity was quantified as the mean signal per cell using ImageJ and normalized to the cell area.

## Cc1cc(-n2cccc2)c(C)c2c1[nH]c1ccc(Cl)cc12 [Compound 1]
HeLa cells [1]; HeLa cells, coadministration with FK866
  relief of FK866 cytotoxicity: counteracted the toxic effect of FK866 in a dose-dependent manner
HeLa cells [1]; Homo sapiens, HeLa, cell viability, compound alone, read-out: GI50
  GI50: > 25 µM
HeLa cells [1]; ratio at the highest noncytotoxic dose of carbazole analog, readout of NAMPT activation
  GI50 FK866 with carbazole/GI50 FK866: 2.6
HeLa cells [1]; ratio at the highest noncytotoxic dose of carbazole analog, synergy with PTX
  GI50 PTX/GI50 PTX with carbazole: 2.5
NAMPT
  binding to NAMPT (AS-MS): directly binds to NAMPT
[2]; i.v. every 2 days, Carba1 60 mg/kg alone or with PTX
  tumor size: no significant tumor size changes
[2]; i.v., Carba1 60 mg/kg, or combination
  toxicity (blood counts, markers of renal or hepatic function): no detectable toxicity
HeLa cells [3]
  GI50: > 25 µM
DRG explants; 12 μM Carba1 with 500 nM PTX
  fragmented axons in DRG explants under PTX: reduced number of fragmented axons
  myelin staining, Carba1 combined with PTX vs PTX alone: substantially improved
DRG explants; Carba1 12 μM or PTX 500 nM
  MBP staining (axonal myelination), agent alone: had no effect
Carbonic anhydrase (CA)
  binding to CA (AS-MS): neither FK866 nor Carba1 was found to bind CA
HeLa cells [4]
  increase in NAD(P)H production: about 30%
